Measurements: patent publication US20020115642A1, “Beta-lactam antibiotics” (priority 2000, published 2002)
In brackets after ≈: the same amount, converted by molar mass. Read-outs that look alike come from different tables or passages of the source.

Key:
P. aeruginosa = assay: Susceptibility testing (MIC, modified NCCLS method); format: cell-based, Pseudomonas aeruginosa
Description: (§1) The NCCLS (National Committee for Clinical Laboratory Standards) method to determine MIC's of antimicrobial compounds was modified for high-throughput screening. All stocks of tested compounds were prepared in either water or in dimethylsulfoxide (DMSO), depending on the solubility. […] Briefly 20 2-fold serial dilutions of testing compounds from the highest concentration were made in a 384-well microtiter plate. Each well was inoculated with testing bacteria in broth to a final concentration of approximately 1-1.5×10^6 cells/ml. Bacterial growth was determined by the increase of optical density at 600 nm using a microplate reader (Tecan SpectraFluor Plus).

E. coli N = assay: Inhibition of bacterial growth (IC50, OD600); format: cell-based
Description: (§2) Compounds of the invention were tested for their ability to inhibit the growth of β-lactam sensitive and resistant bacteria by contacting samples of such cells with various dilutions of the compositions, incubating the cells at 37° C. in the presence of these compositions and then measuring the number of viable cells present in each sample.
(§3) Two compounds of the invention were tested, Compound (9) and Compound (1l). Incubation of bacterial cells was performed for two time periods, 10 hours and 20 hours. Four E. coli strains were used for the test. These strains were all derived from the strain NovaBlue (NovaGen Inc., Madison, Wis.). E. coli N is a normal, β-lactam sensitive strain. E coli R(Tem1) is a β-lactam resistant strain with a β-lactamase gene on a plasmid. E. coli C(Tem4O-15) is a β-lactam resistant strain with a β-lactam inhibitor resistant β-lactamase gene, and E. coli C(Tem3 1-27) is β-lactam resistant strain with an alternative β-lactam inhibitor resistant β-lactamase gene.
(§4) The various E. coli strains were each treated with dilutions of the compounds of the invention. […] The number of viable cells at each time point was determined by measuring the OD600 of each cell sample.
(§5) After measuring the number of viable cells present, the IC50 for each sample was determined. […] In addition, both compounds were effective at inhibiting the growth of both antibiotic sensitive and resistant bacterial cells.

E. coli C(Tem3 1-27) = assay: Inhibition of bacterial growth (IC50, OD600); format: cell-based; settings: for IC50: Cell C (Tem31-27)
Description: as §2, §3, §4, §5

E coli R(Tem1) = assay: Inhibition of bacterial growth (IC50, OD600); format: cell-based; settings: for IC50 ratio N/R: N versus R (Tem1); for IC50: Cell R (Tem1)
Description: as §2, §3, §4, §5

E. coli C(Tem4O-15) = assay: Inhibition of bacterial growth (IC50, OD600); format: cell-based; settings: for IC50: Cell C (Tem40-15)
Description: as §2, §3, §4, §5

K. pneumoniae = assay: Susceptibility testing (MIC, modified NCCLS method); format: cell-based, Klebsiella pneumoniae
Description: as §1

Staphylococcus aureus = assay: as above; format: cell-based
Description: as §1

E. aerogenes = assay: as above; format: cell-based, Enterobacter aerogenes; settings: E. aerogenes (5)
Description: as §1

E. cloacae = assay: as above; format: cell-based, Enterobacter cloacae; settings: E. cloacae (1)
Description: as §1

[1] = system: S. aureus clinical isolates; assay: MIC by agar dilution, recent clinical isolates (UCSD Medical Center); format: cell-based, Staphylococcus aureus; settings: MRSA (17)
[2] = system: S. aureus clinical isolates; assay: as above; format: cell-based, Staphylococcus aureus; settings: MSSA (14)
Description: Growth of all 14 isolates of MSSA was inhibited by Compound (9) at the lowest tested concentration (0.08 μg/ml) (See Table 6, below).

[3] = read-out: IC50 10 hours, Cell N, 10 hours, 37° C.
[4] = read-out: IC50 10 hours, 10 hours
[5] = read-out: IC50 20 hours, 20 hours

Q: Which MIC (P. aeruginosa; P. aeruginosa ATCC 21726) does the source give for “3-(2-(2,4-Dichlorophenoxy)-5-chlorophenoxy)methyl-7-(2-thienylacetamido)-1-oxo-3-cephem-4-carboxylate [Compound 11]” here?
A: Its MIC is greater than 64 µg/mL.

Q: And the MIC (P. aeruginosa; P. aeruginosa ATCC 29872)?
A: The MIC was greater than 64 µg/mL.

Q: And the IC50 (E. coli N; [3])?
A: Its IC50 is 7.48 µM.

Q: And the IC50 (E. coli N; read-out: IC50 20 hours, Cell N, 20 hours)?
A: The IC50 was 4.24 µM.

Q: And the “IC50 ratio (C/R or N/C)” value (E. coli C(Tem3 1-27); 10 hours, line of C (Tem31-27))?
A: Its value is “N/C = 6.7x”.

Q: And the “IC50 ratio (given C/R or N/R)” value (E. coli C(Tem3 1-27); 20 hours, line of C (Tem31-27))?
A: The value was “N/R = 2.9x”.

Q: And the IC50 (E. coli C(Tem3 1-27); [4])?
A: Its IC50 is 1.11 µM.

Q: And the IC50 (E. coli C(Tem3 1-27); [5])?
A: Its IC50 is 1.48 µM.

Q: What about the “IC50 ratio N/R” value (E coli R(Tem1); 10 hours) of the same compound?
A: Its value is “N/R = 1388x”.

Q: And the “IC50 ratio N/R” value (E coli R(Tem1); 20 hours)?
A: The value was “N/R = 120x”.

Q: What about the IC50 (E coli R(Tem1); [4]) of the same compound?
A: Its IC50 is 0.00539 µM.

Q: And the IC50 (E coli R(Tem1); [5])?
A: Its IC50 is 0.0353 µM.

Q: What about the “IC50 ratio (C/R or N/C)” value (E. coli C(Tem4O-15); 10 hours, line of C (Tem40-15)) of the same compound?
A: Its value is “N/C = 20x”.

Q: What about the “IC50 ratio (given C/R or N/R)” value (E. coli C(Tem4O-15); 20 hours, line of C (Tem40-15)) of the same compound?
A: The value was “N/R = 6.5x”.

Q: And the IC50 (E. coli C(Tem4O-15); [4])?
A: Its IC50 is 0.369 µM.

Q: What about the IC50 (E. coli C(Tem4O-15); [5]) of the same compound?
A: The IC50 was 0.653 µM.

Q: And the MIC (K. pneumoniae; K. pneumoniae ATCC 700721)?
A: The MIC was 4 µg/mL.

Q: And the MIC (Staphylococcus aureus; S. aureus ATCC 700260)?
A: Its MIC is 0.0078 µg/mL.

Q: What about the MIC (Staphylococcus aureus; S. aureus ATCC 700699) of the same compound?
A: The MIC was 1 µg/mL.

Q: Which IC50 (E. coli N; Escherichia coli, 10 h, read-out: IC50 10 hours, Cell N, 10 hours, 37° C.) does the source give for `CC1(C)S[C@@H]2[C@H](NC(=O)[C@H](N)c3ccccc3)C(=O)N2[C@H]1C(=O)O` [Ampicillin, ampicillin, reference compound] here?
A: The IC50 was 9.71 µM.

Q: What about the IC50 (E. coli N; Escherichia coli, 20 h, read-out: IC50 20 hours, Cell N, 20 hours) of the same compound?
A: Its IC50 is 7.47 µM.

Q: What about the IC50 (E. coli N; [3]) of the same compound?
A: The IC50 was 7.88 µM.

Q: What about the MIC (K. pneumoniae; Klebsiella pneumoniae, K. pneumoniae (5), read-out: GM* MIC (geometric mean)) of the same compound?
A: Its MIC is 27200 µg/mL (≈ 77800 µM).

Q: And the MIC range (E. aerogenes)?
A: Its MIC range is 61 to 7813 µg/mL.

Q: And the MIC (E. aerogenes; Klebsiella aerogenes, read-out: GM* MIC (geometric mean))?
A: The MIC was 488 µg/mL (≈ 1400 µM).

Q: And the MIC range (E. cloacae)?
A: Its MIC range is 31 µg/mL (≈ 88.7 µM).

Q: What about the MIC (E. cloacae; Enterobacter cloacae, read-out: GM* MIC (geometric mean)) of the same compound?
A: Its MIC is 31 µg/mL (≈ 88.7 µM).

Q: Which MIC range [1] does the source give for `Cc1nnc(SCC2=C(C(=O)O)N3C(=O)[C@@H](NC(=O)Cn4cnnn4)[C@H]3SC2)s1` [Cefazolin, reference compound] here?
A: The MIC range was 5 µg/mL (≈ 11 µM).

Q: What about the MIC50 ([1]; Staphylococcus aureus) of the same compound?
A: Its MIC50 is greater than 5 µg/mL.

Q: What about the MIC90 ([1]; Staphylococcus aureus) of the same compound?
A: The MIC90 was greater than 5 µg/mL.

Q: And the MIC range [2]?
A: Its MIC range is 0.08 to 0.6 µg/mL.

Q: And the MIC50 ([2]; Staphylococcus aureus)?
A: The MIC50 was 0.16 µg/mL (≈ 0.352 µM).

Q: And the MIC90 ([2]; Staphylococcus aureus)?
A: The MIC90 was 0.3 µg/mL (≈ 0.66 µM).
